From patent publication US7776903B2, “Pharmaceutical preparations containing substituted 2,5-diaminomethyl-1H-pyrroles” (priority 2002, dated 2010)
Where two headings read alike, the source gives them in different places.

Columns and labels:
[1] = target: T1, 5-HT uptake (Rattus norvegicus, UniProt P31652); experiment: 5-HT uptake inhibition in rat brain synaptosomes (medulla and pons); assay type: biochemical; conditions: conc. 10 (unit not given), [3H]-5-HT, 5 minutes
T1 construct: Synaptosomes from rat brain regions were freshly isolated; from tissue; host or cells: rat brain synaptosomes (medulla and pons)
T1 sequence (P31652 whole entry): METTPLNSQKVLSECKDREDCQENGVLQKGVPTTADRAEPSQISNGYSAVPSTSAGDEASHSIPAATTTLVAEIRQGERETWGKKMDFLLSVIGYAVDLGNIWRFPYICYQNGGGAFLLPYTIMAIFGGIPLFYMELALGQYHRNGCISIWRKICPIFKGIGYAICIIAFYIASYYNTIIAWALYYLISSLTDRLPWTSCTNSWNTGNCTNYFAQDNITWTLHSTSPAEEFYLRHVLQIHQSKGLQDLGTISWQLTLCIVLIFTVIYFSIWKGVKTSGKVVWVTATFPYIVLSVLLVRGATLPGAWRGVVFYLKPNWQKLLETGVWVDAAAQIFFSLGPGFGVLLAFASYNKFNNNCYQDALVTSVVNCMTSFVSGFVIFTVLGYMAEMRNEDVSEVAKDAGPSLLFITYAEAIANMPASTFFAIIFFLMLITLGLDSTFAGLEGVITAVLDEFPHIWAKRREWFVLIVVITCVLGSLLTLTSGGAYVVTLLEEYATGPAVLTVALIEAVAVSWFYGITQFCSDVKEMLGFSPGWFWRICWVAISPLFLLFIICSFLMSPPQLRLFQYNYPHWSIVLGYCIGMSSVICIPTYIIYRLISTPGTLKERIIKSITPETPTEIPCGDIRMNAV
From the text: (§1) c) Method for Determining Noradrenalin and the 5-HT Uptake Inhibition:
(§2) Synaptosomes from rat brain regions were freshly isolated for in vitro studies, as described in the publication “The isolation of nerve endings from brain” by E. G. Gray and V. P. Whittaker, J. Anatomy 96, pages 79-88, 1962. The corresponding literature description is hereby introduced as a reference and is deemed to be part of the disclosure.
(§3) The tissue (hypothalamus for the determination of noradrenalin uptake inhibition and medulla and pons for the determination of 5-HT uptake inhibition) was homogenised in ice-cooled 0.32 M sucrose (100 mg of tissue/1 mL) in a glass homogeniser with teflon pestle using five complete up and down strokes at 840 revolutions/minute.
(§4) The homogenate was centrifuged at 4° C. for 10 minutes at 1000 g. After subsequent centrifugation at 17000 g for 55 minutes, the synaptosomes (P2 fraction) were obtained, which were resuspended in 0.32 M glucose (0.5 mL/100 mg of original weight).
(§5) The particular uptake was measured in a 96-well microtitre plate. The volume was 250 μl and the incubation proceeded at room temperature (approx. 20-25° C.) under an O2 atmosphere.
(§6) The incubation time was 7.5 minutes for [^3H]-NA and 5 minutes for [^3H]-5-HT. The 96 samples were then filtered through a Unifilter GF/B® microtitre plate (Packard) and washed with […] of incubated buffer using a “Brabdel MPXR1-96T Cell-Harvester”. The Unifilter GF/B plate was dried for 1 hour at 55° C. The plate was then sealed with a Back seal® (Packard) and 35 μl of scintillation fluid were added per well (Ultima gold®, Packard). After sealing with a top seal® (Packard) and establishment of equilibrium (around 5 hours), radioactivity was determined in a “Trilux 1450 Microbeta” (Wallac).
(§7) The quantity of protein used in the above determination corresponded to the values known from the literature, as for example described in “Protein measurement with the folin phenol reagent”, Lowry et al., J. Biol. Chem., 193, 265-275, 1951. A detailed description of the method may also be found in the literature, for example in M. Ch. Frink, H.-H. Hennies, W. Engelberger, M. Haurand and B. Wilffert (1996) Arzneim.-Forsch./Drug Res. 46 (III), 11, 1029-1036. The corresponding literature descriptions are hereby introduced as a reference and are deemed to be part of the disclosure.

[2] = target: T2, NA transporter (Rattus norvegicus, UniProt Q63380); experiment: Noradrenalin uptake inhibition in rat brain synaptosomes (hypothalamus); assay type: biochemical; conditions: conc. 10 (unit not given), [3H]-NA, 7.5 minutes
T2 construct: Synaptosomes from rat brain regions were freshly isolated; from tissue; host or cells: rat brain synaptosomes (hypothalamus)
T2 sequence (Q63380 1-617): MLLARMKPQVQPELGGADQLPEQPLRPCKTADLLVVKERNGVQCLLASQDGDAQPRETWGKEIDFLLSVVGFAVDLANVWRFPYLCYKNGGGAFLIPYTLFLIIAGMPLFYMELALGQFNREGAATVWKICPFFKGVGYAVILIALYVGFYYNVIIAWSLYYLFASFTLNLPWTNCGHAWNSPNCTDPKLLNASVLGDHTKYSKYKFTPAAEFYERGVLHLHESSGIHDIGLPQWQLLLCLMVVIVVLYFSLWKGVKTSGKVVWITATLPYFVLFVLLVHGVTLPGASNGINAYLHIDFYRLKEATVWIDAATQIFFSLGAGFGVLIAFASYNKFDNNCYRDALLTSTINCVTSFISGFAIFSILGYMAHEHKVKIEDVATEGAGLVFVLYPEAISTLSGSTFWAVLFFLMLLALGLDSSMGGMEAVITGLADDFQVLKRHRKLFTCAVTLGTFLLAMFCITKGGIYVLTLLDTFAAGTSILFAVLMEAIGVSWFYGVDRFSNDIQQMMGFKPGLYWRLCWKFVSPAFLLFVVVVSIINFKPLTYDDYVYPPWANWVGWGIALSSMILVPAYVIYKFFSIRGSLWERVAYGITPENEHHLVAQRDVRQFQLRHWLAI
From the text: as §1, §2, §3, §4, §5, §6
The following characteristics were determined for the NA transporter: NA uptake: Km=0.32±0.11 μM
as §7

[3] = target: human μ opiate receptor (Homo sapiens, UniProt P35372); experiment: Human μ opiate receptor binding assay with [3H]-naloxone, CHO-K1 membrane preparation; conditions: for inhibition at 1 µM: read-out: Human ORm Nal inhibition [%]
human μ opiate receptor, sequence (P35372 whole entry): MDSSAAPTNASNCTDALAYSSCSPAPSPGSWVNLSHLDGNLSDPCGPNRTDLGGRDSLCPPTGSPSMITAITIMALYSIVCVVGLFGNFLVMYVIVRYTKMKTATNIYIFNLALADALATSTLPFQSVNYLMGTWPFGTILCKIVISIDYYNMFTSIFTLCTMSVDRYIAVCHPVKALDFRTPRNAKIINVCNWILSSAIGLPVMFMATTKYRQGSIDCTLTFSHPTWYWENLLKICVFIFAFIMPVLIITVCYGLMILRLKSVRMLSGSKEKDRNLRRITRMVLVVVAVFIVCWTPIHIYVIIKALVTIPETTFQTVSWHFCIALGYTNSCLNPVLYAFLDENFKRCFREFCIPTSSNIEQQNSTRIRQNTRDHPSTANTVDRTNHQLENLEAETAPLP
Method: b) Method for Determining Affinity for the Human μ opiate receptor
Receptor affinity for the human μ opiate receptor is determined in a homogeneous batch in microtitre plates. To this end, dilution series of the particular substituted 2,5-diaminomethyl-1H-pyrrole to be tested were incubated at room temperature for 90 minutes in a total volume of 250 μl with a receptor membrane preparation (15-40 μg of protein per 250 μl of incubation batch) of CHO-K1 cells, which express the human μ opiate receptor (RB-HOM receptor membrane preparation from NEN, Zaventem, Belgium) in the presence of 1 nmol/l of the radioactive ligand [^3H]-naloxone (NET719, from NEN, Zaventem, Belgium) and of 1 mg of WGA-SPA beads (wheat germ agglutinin SPA beads from Amersham/Pharmacia, Freiburg, Germany). The incubation buffer used is 50 mmol/l tris-HCl supplemented with 0.05 wt. % of sodium azide and with 0.06 wt. % of bovine serum albumin. 25 μmol/l of naloxone were additionally added to determine nonspecific binding. Once the ninety minute incubation time had elapsed, the microtitre plates were centrifuged off for 20 minutes at 1000 g and the radioactivity measured in a β-Counter (Microbeta-Trilux, from PerkinElmer Wallac, Freiburg, Germany. The percentage displacement of the radioactive ligand from its binding to the human μ opiate receptor was determined at a concentration of the substances to be tested of 1 μmol/l and stated as percentage inhibition of specific binding. On the basis of the percentage displacement by different concentrations of the compounds to be tested of the general formula I, IC50 inhibition concentrations which bring about 50% displacement of the radioactive ligand were calculated. Ki values for the test substances were obtained by conversion using the Cheng-Prusoff equation.

[4] = target: T3, ORL-1 receptor (Homo sapiens, UniProt P41146); experiment: ORL-1 receptor binding assay with 3H-nociceptin/Orphanin FQ, membranes of recombinant CHO-ORL1 cells; conditions: 3H-nociceptin/Orphanin FQ 0.5 nM
T3 construct: expressed in transfected cells; host or cells: CHO (CHO-ORL1)
T3 sequence (P41146 whole entry): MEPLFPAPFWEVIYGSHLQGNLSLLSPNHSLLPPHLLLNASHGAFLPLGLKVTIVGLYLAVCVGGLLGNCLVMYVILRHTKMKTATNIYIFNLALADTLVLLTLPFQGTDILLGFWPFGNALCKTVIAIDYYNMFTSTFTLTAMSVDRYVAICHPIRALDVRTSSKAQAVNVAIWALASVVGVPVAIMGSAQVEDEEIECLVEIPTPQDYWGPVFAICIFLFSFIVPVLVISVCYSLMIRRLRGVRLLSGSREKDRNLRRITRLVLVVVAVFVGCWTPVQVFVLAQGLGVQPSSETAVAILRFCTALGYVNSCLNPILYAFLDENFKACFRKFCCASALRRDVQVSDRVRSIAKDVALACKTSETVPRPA
Method: a) Method for Determining Affinity for the ORL-1 Receptor
The affinity of the particular substituted 2,5-diaminomethyl-1H-pyrrole of the general formula I for the ORL-1 receptor was determined in a receptor binding assay with ^3H-nociceptin/Orphanin FQ with membranes of recombinant CHO-ORL1 cells, as described by Ardati et al. in Mol. Pharmacol., 51, 1997, pages 816-824. The corresponding literature description is hereby introduced as a reference and is deemed to be part of the disclosure.
The concentration of ^3H-nociceptin/Orphanin FQ in these tests was 0.5 nM. The binding assays were in each case performed with 20 μg of membrane protein per 200 μl batch in 50 mM Hepes, pH 7.4, 10 mM MgCl2 and 1 mM EDTA. Binding to the ORL1 receptor was determined using 1 mg portions of WGA-SPA Beads (Amersham-Pharmacia, Freiburg, Germany), by one hour's incubation of the batch at room temperature (approx. 20-25° C.) and subsequent measurement in a Trilux scintillation counter (Wallac, Finland).

[5] = [3H]-naloxone, from IC50 by Cheng-Prusoff equation, read-out: Human ORm Nal Ki

COc1ccccc1C(c1ccc(CN2CCCCC2)n1C)N(C)C.Cl.Cl (stereo not shown) [Example 1, [(2-Methoxyphenyl)-(1-methyl-5-piperidin-1-ylmethyl-1H-pyrrol-2-yl)-methyl]-dimethyl-amine dihydrochloride]
Rat 5-HT uptake inhibition [%] conc. 10 [1]: 77%
Rat noradrenalin uptake inhibition [%], conc. 10 [2]: 63%

COc1ccccc1C(c1ccc(CN2CCCC2)n1C)N(C)C.Cl.Cl (stereo not shown) [Example 2, [(2-Methoxyphenyl)-(1-methyl-5-pyrrolidin-1-ylmethyl-1H-pyrrol-2-yl)-methyl]-dimethyl-amine dihydrochloride]
inhibition at 1 µM [3]: 25%
Rat 5-HT uptake inhibition [%] conc. 10 [1]: 76%
Rat noradrenalin uptake inhibition [%], conc. 10 [2]: 65%

Cc1ccccc1C(c1ccc(CN2CCCCC2)n1C)N(C)C.Cl.Cl (stereo not shown) [Example 3, Dimethyl-[(1-methyl-5-piperidin-1-ylmethyl-1H-pyrrol-2-yl)-o-tolyl-methyl]-amine dihydrochloride]
Rat 5-HT uptake inhibition [%] conc. 10 [1]: 30%

CN(C)C(c1ccccc1Br)c1ccc(CN2CCCCC2)n1C.Cl.Cl (stereo not shown) [Example 4, [(2-Bromo-phenyl)-(1-methyl-5-piperidin-1-ylmethyl-1H-pyrrol-2-yl)-methyl]-dimethyl-amine dihydrochloride]
Rat 5-HT uptake inhibition [%] conc. 10 [1]: 57%

CN(C)C(c1ccc(Br)cc1)c1ccc(CN2CCCCC2)n1C.Cl.Cl (stereo not shown) [Example 5, [(4-Bromo-phenyl)-(1-methyl-5-piperidin-1-ylmethyl-1H-pyrrol-2-yl)-methyl]-dimethyl-amine dihydrochloride]
Ki [3, 5]: 860 nM
inhibition at 1 µM [3]: 52%
Rat 5-HT uptake inhibition [%] conc. 10 [1]: 39%
Rat noradrenalin uptake inhibition [%], conc. 10 [2]: 91%

CN(C)C(c1ccc(F)cc1)c1ccc(CN2CCOCC2)n1C.Cl.Cl (stereo not shown) [Example 6, [(4-Fluoro-phenyl)-(1-methyl-5-morpholin-4-ylmethyl-1H-pyrrol-2-yl)-methyl]-dimethyl-amine dihydrochloride]
Ki [3, 5]: 500 nM
inhibition at 1 µM [3]: 21%
Rat 5-HT uptake inhibition [%] conc. 10 [1]: 53%
Rat noradrenalin uptake inhibition [%], conc. 10 [2]: 42%

CCN(CC)Cc1ccc(C(c2ccccc2)N(C)C)n1C.Cl.Cl (stereo not shown) [Example 7, [5-(Dimethylamino-phenyl-methyl)-1-methyl-1H-pyrrol-2-ylmethyl]-diethyl-amine dihydrochloride]
Ki [4]: 420 nM
Human ORL1 inhibition [%] ([4]; test concentration not given): 42%
inhibition at 1 µM [3]: 50%
Rat 5-HT uptake inhibition [%] conc. 10 [1]: 44%
Rat noradrenalin uptake inhibition [%], conc. 10 [2]: 52%

CCOC(=O)C(c1ccc(CN2CCCCC2)n1C)N1CCCCC1 (stereo not shown) [Example 8, (1-Methyl-5-piperidin-1-ylmethyl-1H-pyrrol-2-yl)-piperidin-1-yl-acetic acid ethyl ester drochloride]
Ki [3, 5]: 220 nM
inhibition at 1 µM [3]: 69%
Rat noradrenalin uptake inhibition [%], conc. 10 [2]: 33%

CCOC(=O)C(c1ccc(CN2CCCCC2)n1C)N1CCOCC1.Cl.Cl (stereo not shown) [Example 9, (1-Methyl-5-piperidin-1-ylmethyl-1H-pyrrol-2-yl)-morpholin-4-yl-acetic acid ethyl eastr dihydrochloride]
Rat 5-HT uptake inhibition [%] conc. 10 [1]: 26%

CCOC(=O)C(c1ccc(CN(CC)CC)n1C)N1CCOCC1.Cl.Cl (stereo not shown) [Example 10, (5-Diethylaminomethyl-1-methyl-1H-pyrrol-2-yl)-morpholin-4-yl-acetic acid ethyl ester dihydrochloride]
Ki [3]: 70 nM
inhibition at 1 µM [3]: 84%
Rat 5-HT uptake inhibition [%] conc. 10 [1]: 28%

CCOC(=O)C(c1ccc(CN2CCOCC2)n1C)N1CCCC1.Cl.Cl (stereo not shown) [Example 13, (1-Methyl-5-morpholin-4-ylmethyl-1H-pyrrol-2-yl)-pyrrolidin-1-yl-acetic acid ethyl ester dihydrochloride]
Rat 5-HT uptake inhibition [%] conc. 10 [1]: 28%
